Results published in patent publication US6159934A, “Use of GHRH-RP to stimulate stem cell factor production” (Indiana University Foundation, priority 1996, dated 2000).

What was measured:
[1] = test system: androgen binding protein (ABP) gene expression in Sertoli cells; assay: Northern blot analysis of androgen binding protein (ABP) gene expression in cultured Sertoli cells; format: cell-based; details: GHRH-RP 10 nM and 100 nM, GHRH 10 nM, 16 hours, rat Sertoli cells
Experimental: (§1) As indicated above, it has been discovered that GHRH-RP has a unique testicular action. GHRH-RP specifically activated SVF in Sertoli cells as described in Example 3 below. […] Northern gel analysis of 10 μg of total Sertoli cell RNA was performed and the blot probed for SCF, transferrin, androgen binding protein (ABP), α-inhibin and γ-actin as control. B. Bloch, A. Baird, N. Ling, R. Guillemin, Endocrinology 118, 156 (1986). Stimulation of SCF expression is 12 fold over control at 10 nM and 16 fold at 100 nM concentrations of GHRH-RP. GHRH (10 nM) stimulated stem cell factor gene expression 3 fold over control. […] Other Sertoli cell specific transcripts including transferrin, ABP and α-inhibin were note regulated by GHRH-RP (FIG. 6). Although a functional GHRH receptor has been identified in Sertoli cells (R. S. Johnson, B. M. Spiegelman, V. Papaioannou, Cell 71, 577 (1992); K. M. Zsebo et al., Cell 63, 213 (1990); E. Huang et al., Cell 63, 225), the GHRH-RP stimulation of stem cell factor expression may not be mediated through this receptor. […] Adenylate cyclase stimulation is measured as fold stimulation of control. […]
(§2) Sprague-Dawley rats (20-22 day old) were obtained from Harlan Labs (Indianapolis, IN). […] Cell purity was monitored by phase contrast microscopy and by comparative reverse transcription-polymerase chain reaction (RT-PCR) amplification. […]

[2] = test system: stem cell factor (SCF) gene expression in Sertoli cells; assay: Northern blot analysis of SCF gene expression in cultured Sertoli cells; format: cell-based; details: 16 hours, rat Sertoli cells, actin as control
Experimental: As indicated above, it has been discovered that GHRH-RP has a unique testicular action. GHRH-RP specifically activated SVF in Sertoli cells as described in Example 3 below. […] Northern gel analysis of 10 μg of total Sertoli cell RNA was performed and the blot probed for SCF, transferrin, androgen binding protein (ABP), α-inhibin and γ-actin as control. B. Bloch, A. Baird, N. Ling, R. Guillemin, Endocrinology 118, 156 (1986). Stimulation of SCF expression is 12 fold over control at 10 nM and 16 fold at 100 nM concentrations of GHRH-RP. GHRH (10 nM) stimulated stem cell factor gene expression 3 fold over control. […] Other Sertoli cell specific transcripts including transferrin, ABP and α-inhibin were note regulated by GHRH-RP (FIG. 6). Although a functional GHRH receptor has been identified in Sertoli cells (R. S. Johnson, B. M. Spiegelman, V. Papaioannou, Cell 71, 577 (1992); K. M. Zsebo et al., Cell 63, 213 (1990); E. Huang et al., Cell 63, 225), the GHRH-RP stimulation of stem cell factor expression may not be mediated through this receptor. […] Briefly, shown in FIG. 6 are the results of experiments in which rat Sertoli cells, isolated and cultured for 4 days were incubated with GHRH-RP (100 nM), GHRH (100 nM), FSH (0.0275 U/ml) or control media for 30 minutes at 37° C. The cells were then assayed for cAMP production by 125 I cAMP Radioimmunoassay. C. H. Srivastava, J. D. Fleck, A. M. Meyers, S. A. Berry, O. H. Pescovitz, "Distribution of Growth Hormone Releasing Hormone-Like (HRH-LI) mRNA and Immunoreactivity in Rat Tissues" (Abstract), The Endocrine Society, 73rd Annual Endocrine Society, Washington, D.C. (1991). Adenylate cyclase stimulation is measured as fold stimulation of control. Each bar is representative of five separate experiments.
as §2

[3] = test system: α-inhibin gene expression in Sertoli cells; assay: Northern blot analysis of α-inhibin gene expression in cultured Sertoli cells; format: cell-based; details: GHRH-RP 10 nM and 100 nM, GHRH 10 nM, 16 hours, rat Sertoli cells
Experimental: as §1, §2

[4] = test system: adenylate cyclase in cultured Sertoli cells; assay: cAMP production (125I cAMP radioimmunoassay) in cultured Sertoli cells; format: cell-based; details: 100 nM, 30 minutes at 37° C., rat Sertoli cells day 4 of culture
Experimental: As indicated above, it has been discovered that GHRH-RP has a unique testicular action. GHRH-RP specifically activated SVF in Sertoli cells as described in Example 3 below. […] Northern gel analysis of 10 μg of total Sertoli cell RNA was performed and the blot probed for SCF, transferrin, androgen binding protein (ABP), α-inhibin and γ-actin as control. B. Bloch, A. Baird, N. Ling, R. Guillemin, Endocrinology 118, 156 (1986). Stimulation of SCF expression is 12 fold over control at 10 nM and 16 fold at 100 nM concentrations of GHRH-RP. GHRH (10 nM) stimulated stem cell factor gene expression 3 fold over control. […] Other Sertoli cell specific transcripts including transferrin, ABP and α-inhibin were note regulated by GHRH-RP (FIG. 6). Although a functional GHRH receptor has been identified in Sertoli cells (R. S. Johnson, B. M. Spiegelman, V. Papaioannou, Cell 71, 577 (1992); K. M. Zsebo et al., Cell 63, 213 (1990); E. Huang et al., Cell 63, 225), the GHRH-RP stimulation of stem cell factor expression may not be mediated through this receptor. […] Briefly, shown in FIG. 6 are the results of experiments in which rat Sertoli cells, isolated and cultured for 4 days were incubated with GHRH-RP (100 nM), GHRH (100 nM), FSH (0.0275 U/ml) or control media for 30 minutes at 37° C. […] Adenylate cyclase stimulation is measured as fold stimulation of control. […]

[5] = test system: transferrin gene expression in Sertoli cells; assay: Northern blot analysis of transferrin gene expression in cultured Sertoli cells; format: cell-based; details: GHRH-RP 10 nM and 100 nM, GHRH 10 nM, 16 hours, rat Sertoli cells
Experimental: as §1, §2

[6] = test system: stem cell factor (SCF) gene expression in Sertoli cells; details: treatment of cultured Sertoli cells; Srivastava et al., Endocrinology 133, 1478 (1993); cited from earlier work
[7] = test system: Sertoli cell c-fos gene expression; details: treatment of cultured Sertoli cells; Srivastava et al., Endocrinology 133, 1478 (1993); cited from earlier work

Substance | stimulation of ABP gene expression over control [1] | Stimulation of SCF expression ([2]; 10 nM) [fold over control] | Stimulation of SCF expression ([2]; 100 nM) [fold] | stimulation of α-inhibin gene expression over control [3] | Adenylate cyclase stimulation (cAMP production) [4] | stimulation of transferrin gene expression over control [5] | Sertoli cell stem cell factor gene expression [6] | Sertoli cell c-fos gene expression [7]
GHRH-RP: 30 amino acid C-terminal peptide of the GHRH precursor; rat peptide synthesized from the deduced amino acid sequence (amino acids 74-104) (HLDRVWAEDKQMALESILQGFPRMKLSAEA) | no stimulation | 12 | 16 | no stimulation | does not stimulate increases | no stimulation | – | –
GHRH: mature 43 amino acid rat GHRH peptide, hypothalamic factor that stimulates release of pituitary growth hormone (HADAIFTSSYRRILGQLYARKLLHEIMNRQQGERNQEQRSRFN) | no stimulation | 3 | – | no stimulation | – | no stimulation | activates | activates
